According to ChEMBL document CHEMBL1135981, “Designing analogues of mini atrial natriuretic peptide based on structural analysis by NMR and restrained molecular dynamics” (J Med Chem, 2002):

test system: CHO; test: Evaluated for Biological activity, 50% effective concentration determined by its ability to produce cGMP; format: functional, cell-based; settings: Cricetulus griseus

| Structure (SMILES) | EC50 [nM] |
| --- | --- |
| CC[C@H](C)[C@@H]1NC(=O)[C@H](CCCN=C(N)N)NC(=O)[C@H](CC(=O)O)NC(=O)[C@H](CCSC)NC(=O)[C@H](CCCN=C(N)N)NC(=O)[C@@H](C)NC(=O)[C@@H](C)NC(=O)[C@H](Cc2ccccc2)NC(=O)[C@H](Cc2c[nH]cn2)NC(=O)[C@@H](NC(=O)[C@@H](N)CCSC)CSSC[C@@H](C(=O)N[C@@H](Cc2ccc(O)cc2)C(=O)N[C@@H](CCCN=C(N)N)C(N)=O)NC(=O)[C@H](CO)NC1=O | 1.31 |
| CC[C@H](C)[C@@H]1NC(=O)[C@H](CCCN=C(N)N)NC(=O)[C@H](CC(=O)O)NC(=O)[C@H](CCSC)NC(=O)[C@H](CCCN=C(N)N)NC(=O)CNC(=O)[C@@H](C)NC(=O)[C@H](Cc2ccccc2)NC(=O)[C@H](Cc2c[nH]cn2)NC(=O)[C@@H](NC(=O)[C@@H](N)CCSC)CSSC[C@@H](C(=O)N[C@@H](Cc2ccc(O)cc2)C(=O)N[C@@H](CCCN=C(N)N)C(N)=O)NC(=O)[C@H](CO)NC1=O | 0.176 |
| CC[C@H](C)[C@@H]1NC(=O)[C@H](CCCN=C(N)N)NC(=O)[C@H](CC(=O)O)NC(=O)[C@H](CCSC)NC(=O)[C@H](CCCN=C(N)N)NC(=O)[C@@H](C)NC(=O)CNC(=O)[C@H](Cc2ccccc2)NC(=O)[C@H](Cc2c[nH]cn2)NC(=O)[C@@H](NC(=O)[C@@H](N)CCSC)CSSC[C@@H](C(=O)N[C@@H](Cc2ccc(O)cc2)C(=O)N[C@@H](CCCN=C(N)N)C(N)=O)NC(=O)[C@H](CO)NC1=O | 3.76 |
